Results as given in PubChem BioAssay (NCI).
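In this assay, cells in 96-well plates receive the compound at five concentrations for 48 hours. Endpoints are linearly interpolated between the surrounding concentrations. GI50 is the concentration that inhibits growth by half. TGI is the concentration that stops growth completely.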

What was measured:
Test in all cases: DTP human tumour cell line panel, 48 h
A498 renal = test system: A498 renal
DU-145 prostate = test system: DU-145 prostate
EKVX NSCLC = test system: EKVX NSCLC
HCT-116 colon = test system: HCT-116 colon
MDA-MB-435 = test system: MDA-MB-435
OVCAR-4 ovarian = test system: OVCAR-4 ovarian
OVCAR-5 ovarian = test system: OVCAR-5 ovarian
RXF 393 renal = test system: RXF 393 renal
SNB-19 CNS = test system: SNB-19 CNS
UACC-257 melanoma = test system: UACC-257 melanoma

Row | Compound | GI50 (A498 renal) [µM] | TGI (A498 renal) [µM] | GI50 (DU-145 prostate) [µM] | TGI (DU-145 prostate) [µM] | GI50 (EKVX NSCLC) [µM] | TGI (EKVX NSCLC) [µM] | GI50 (HCT-116 colon) [µM] | TGI (HCT-116 colon) [µM] | GI50 (MDA-MB-435) [µM] | TGI (MDA-MB-435) [µM] | GI50 (OVCAR-4 ovarian) [µM] | TGI (OVCAR-4 ovarian) [µM] | GI50 (OVCAR-5 ovarian) [µM] | TGI (OVCAR-5 ovarian) [µM] | GI50 (RXF 393 renal) [µM] | TGI (RXF 393 renal) [µM] | GI50 (SNB-19 CNS) [µM] | TGI (SNB-19 CNS) [µM] | GI50 (UACC-257 melanoma) [µM] | TGI (UACC-257 melanoma) [µM]
1 | C=C=[CH][Sn]([c]1ccccc1)([c]1ccccc1)[c]1ccccc1 | 1.24 | 2.56 | 1.14 | 2.42 | 1.7 | 4.78 | 0.866 | 2.27 | 1.3 | 2.68 | 1.47 | 3.38 | 1.46 | 2.9 | 1.07 | 2.28 | 1.81 | 3.34 | 1.63 | 3.05
2 | CCN1C(=O)N(CC)C2C1NN=c1s/c(=C\c3ccccc3)c(=O)n12 (configuration not stated) | 0.0238 | 0.147 | 0.308 | > 100 | 0.388 | > 100 | 0.0786 | > 100 | 0.0316 | 0.109 | 0.869 | > 100 | 0.498 | > 100 | 0.0748 | > 100 | 0.537 | > 100 | > 72.7 | > 100
3 | CSc1ccc(C2=NN(C(=O)c3ccc(N)cc3)C(c3ccc(F)cc3)C2)cc1 (configuration not stated) | 12.9 | 27.3 | 10.6 | 24 | 16.6 | 34 | 1.73 | 3.93 | 6.55 | 23.6 | 15 | 31.9 | 16.7 | 31.2 | 17.7 | 34.1 | 8.94 | 22.3 | 20.4 | 35.6
4 | OC(c1ccccc1)c1c(-c2ccccc2)oc(-c2ccccc2)c1C(O)c1ccccc1 (configuration not stated) |  | 30.4 |  | 28.3 |  | 19.6 |  | 18.3 |  | 21.1 |  | 7.99 |  | 32.6 |  | 21.5 |  | 28.6 |  | 
5 | CN(C)CCOc1nc2ccccc2c2c1-c1ccc(Cl)cc1C2=O | 1.19 | 2.87 | 0.444 | 1.35 | 2.06 | 6.85 | 0.422 | 1.52 | 0.489 | 1.88 | 0.927 | 4.04 | 1.27 |  | 1.07 | 2.55 | 0.46 | 2.14 | 1.25 | 2.97
6 | Cc1sc(/N=C2/NC(=O)CS2)nc1-c1nc(/N=C2/NC(=O)CS2)sc1C | 47.1 | > 50 | > 50 | > 50 | 1.33 | > 50 | 15.7 | > 50 | > 50 | > 50 |  |  | > 50 | > 50 | > 50 | > 50 | > 50 | > 50 | > 50 | > 50
7 | CCN(CC)c1ccc2nc3c4ccccc4c(=NC(=O)c4ccccc4-c4c5ccc(N(CC)CC)cc5[o+]c5cc(N(CC)CC)ccc45)cc-3oc2c1 | 6.15 | 23.5 | 1.75 | 3.46 | 3.52 | > 32.6 | 1.88 | > 22.4 | 1.93 | 4.33 | 1.25 | 2.67 | 3.23 | 11.9 |  |  | 2.3 | 6.64 | 1.46 | 3.4
8 | COc1ccc(NC(=O)O[C@H]2[C@H](O[C@H]3[C@@H](O)COC(O[C@H]4C[C@H]5[C@@H]6CC=C7C[C@@H](O)CC[C@]7(C)[C@H]6CC[C@]5(C)[C@H]4[C@H](C)C(=O)CCC(C)C)[C@@H]3OC(C)=O)OC[C@@H](O)[C@@H]2O)cc1 (some centres not stated) | < 0.01 | < 0.01 | 0.367 | 34.7 | 0.349 | 11.2 | < 0.01 | 14.4 | < 0.01 | 0.0628 | 0.145 | > 100 | 0.169 | 26.2 | < 0.01 | < 0.01 | 0.0189 | 3.36 |  | 
9 | N#CSCC(=O)c1ccc(Cl)cc1 | 5.59 | 20.9 | 2.54 | 6.15 | 4.99 | 26.5 | 3.09 | 12.7 | 2.28 | 6.37 | 12.4 | > 100 | 5.39 | 27.9 | 2.05 | 5.18 | 14.1 | > 73 | 5.64 | > 28.6
10 | Cc1c(N2C(=O)/C(=C\c3ccc(N(C)C)cc3)N=C2c2ccccc2)c(=O)n(-c2ccccc2)n1C | > 64.3 | > 100 | 71.3 | > 100 | 68.4 | > 100 | 33.7 | > 100 | > 100 | > 100 | 39.9 | > 100 | > 90.1 | > 100 | > 100 | > 100 | > 100 | > 100 | > 100 | > 100
11 | CCOC(=O)C(Cc1ccc(OC)cc1)C(=O)OCC | 6.54 | 21.4 | 2.65 | 7.71 | 5.84 | 23.7 | 4.45 | 15.6 | 3.97 | 18 | 6.23 | 26.5 | 11.4 | 24.2 | 2.61 | 7.02 | 4.82 | 17.4 | 3.31 | 16.3
12 | O=C(NO)c1cnc(N2CCN(S(=O)(=O)c3ccc4ccccc4c3)CC2)nc1 | 0.0283 | 0.22 | 0.0445 | 2.23 |  |  | 0.03 | 10.1 | 0.0456 | 0.394 | 0.081 | 23.6 | 0.0394 | 10.6 | 0.0399 | 0.208 | 0.238 | 11.8 | 0.0249 | 0.188
13 | COc1cccc(Nc2nccc(Nc3ccc4[nH]ncc4c3)n2)c1 | 1.65 | 5.3 | 1.3 | 2.85 | 1.64 | 4.09 | 1.59 | 3.23 | 1.49 | 3.18 | 1.46 | 4.03 |  |  | 1.06 | 2.33 |  |  | 2.04 | 3.72
14 | CC(=O)/C=C/C1=C(c2ccsc2)c2ccccc2CC1 | 24.7 | 69.7 | 40.8 | > 100 | 35.9 | > 100 | 22.8 | 50.3 | 17.9 | 33.8 | > 100 | > 100 | 27.1 | > 100 |  |  | 42.5 | > 100 |  | 
15 | CC(C)N(C[C@H]1O[C@@H](n2cnc3c(N)ncnc32)[C@H](O)[C@@H]1O)C1CC(CCc2nc3ccc(C(C)(C)C)cc3[nH]2)C1 (some centres not stated) | 29.6 | > 100 | > 100 | > 100 |  |  | > 68 | > 100 | > 54.7 | > 100 | 74.1 | > 100 | > 46.9 | > 100 | 21.2 | > 100 | > 100 | > 100 | > 58.7 | > 100
16 | COc1cnc2c(c1)C(=O)c1c-2n(CCCN2CCN(CCO)CC2)c(=O)c2cc([N+](=O)[O-])ccc12 | 0.794 | 19.7 | 1.43 | 4.42 | 1.8 | 4.23 |  |  | 1.97 | 4.66 | 1.79 | 4.42 | 19.5 | 37.2 | 4.68 | 20.4 | 2.38 | 12.4 | 2.26 | 6.87
17 | CN1CCN(c2ccc3nc4c(nc3c2C(F)(F)F)C(=O)c2ncccc2C4=O)CC1 | 1.94 | 3.63 | 1.23 | 2.6 | 1.79 | 3.87 | 1.47 | 4.51 | 0.178 | 0.344 | 1.07 | 2.26 |  |  | 1.46 | 3.15 | 1.66 | 5.7 | 0.873 | 2.4
18 | CCCCCc1c(C)[nH]c(/C=c2\[nH]/c(=C3/C=c4ccccc4=N3)cc2OC)c1C | 0.0944 | 1.75 | 0.0911 | 16.4 |  |  | 0.028 | 1.07 | 0.0455 | 1.16 | 0.0687 | 16.3 | 0.0654 | 1.81 | 0.086 | 0.755 | 0.226 | 15.4 | 0.394 | 1.73
19 | C[C@@H]1CN2[C@H]3[C@@H]1CC[C@]31CCC(=O)O[C@]1(C)[C@@H]1CC[C@H]3CCC=C3[C@@H]12 | > 70 | > 70 | > 70 | > 70 | > 70 | > 70 | > 70 | > 70 | 48.2 | > 70 | > 70 | > 70 | > 70 | > 70 | > 70 | > 70 | > 70 | > 70 |  | 
